Here are results for 2 compounds from patent US9777008B2, “PRMT5 inhibitors and uses thereof” (Epizyme, Inc., priority 2012, dated 2017).

This assay has as its system symmetric di-methyl arginine in Z-138 cells. In words: Z-138 Methylation Assay (In Cell Western for symmetric di-methyl arginine and DNA content). The conditions noted are these: read-out: ICW EC50. The format is cell-based. The text has this: [formula] [formula] Where top and bottom are the normally allowed to float, but may be fixed at 100 or 0 respectively in a 3-parameter fit. The Hill Coefficient normally allowed to float but may also be fixed at 1 in a 3-parameter fit. Y is the % inhibition and X is the compound concentration. Z-138 Methylation Assay
Z-138 suspension cells were purchased from ATCC (American Type Culture Collection, Manassas, Va.). RPMI/Glutamax medium, penicillin-streptomycin, heat inactivated fetal bovine serum, and D-PBS were purchased from Life Technologies, Grand Island, N.Y., USA. Odyssey blocking buffer, 800CW goat anti-rabbit IgG (H+L) antibody, and Licor Odyssey infrared scanner were purchased from Licor Biosciences, Lincoln, Nebr., USA. Symmetric di-methyl arginine antibody was purchased from EMD Millipore, Billerica, Mass., USA. 16% Paraformaldehyde was purchased from Electron Microscopy Sciences, Hatfield, Pa., USA. Z-138 suspension cells were maintained in growth medium (RPMI 1640 supplemented with 10% v/v heat inactivated fetal bovine serum and 100 units/mL penicillin-streptomycin) and cultured at 37° C. under 5% CO2.
Cell Treatment, in Cell Western (ICW) for Detection of Symmetric Di-Methyl Arginine and DNA Content.
Z-138 cells were seeded in assay medium at a concentration of 50,000 cells per mL to a 384-well cell culture plate with 50 μL per well. Compound (100 nL) from 384 well source plates was added directly to 384 well cell plate. Plates were incubated at 37° C., 5% CO2 for 96 hours. […]
First, the ratio for each well was determined by:
Each plate included fourteen control wells of DMSO only treatment (minimum inhibition) as well as fourteen control wells for maximum inhibition treated with 3 μM of a reference compound (Background wells). The average of the ratio values for each control type was calculated and used to determine the percent inhibition for each test well in the plate. […] Percent inhibition was determined and IC50 curves were generated using triplicate wells per concentration of compound. […]

On to `OC(COc1cccc(-c2ccc3cn[nH]c3c2)c1)CN1CCc2ccccc2C1` (centres unmarked) [Compound 58, 1-(3-(1H-indazol-6-yl)phenoxy)-3-(3,4-dihydroisoquinolin-2(1H)-yl)propan-2-ol], for which the EC50 – broadly, the concentration that produces a half-maximal response – was in the range of 1 to 10 µM.

As to “N-(3-(3-(3,4-dihydroisoquinolin-2(1H)-yl)-2-hydroxypropoxy)phenyl)pyrimidine-5-carboxamide [Compound 145]”, the EC50 fell in the range of 1 to 10 µM.
